Test results reported in ChEMBL document CHEMBL4229348, “Structure-activity relationship studies of ultra-short peptides with potent activities against fluconazole-resistant Candida albicans” (Eur J Med Chem, 2018).
Values after ≈ are worked out from the molar mass of the structure shown. Active and inactive are the calls of the source. No cut-off for these calls is given here. Square brackets hold non-standard residues; d marks the D form. Peptide text beside a SMILES is read from it. Ala(cPr) = N[C@@H](CC1CC1)C(=O)O; Dap = NC[C@H](N)C(=O)O

Assays:
Candida albicans [1] = assay: Antifungal activity against fluconazole-resistant Candida albicans ATCC 64550 after overnight incubation by CLSI broth microdilution method; type: functional
[2] = Retention time of the compound at 0.4 mM by HPLC analysis; type: physicochemical; details: 400 µM
NHDF = assay: Cytotoxicity against NHDF assessed as reduction in cell viability up to 200 uM after 5 days by CellTiter-Glo assay; type: cell-based; details: human, 120 h
Candida albicans [3] = assay: Antifungal activity against fluconazole-resistant Candida albicans ATCC MYA-573 after overnight incubation by CLSI broth microdilution method; type: functional
Candida albicans [4] = assay: Antifungal activity against fluconazole-resistant Candida albicans ATCC 64124 after overnight incubation by CLSI broth microdilution method; type: functional
Candida albicans [5] = assay: Antifungal activity against fluconazole-resistant Candida albicans ATCC 96901 after overnight incubation by CLSI broth microdilution method; type: functional
Candida albicans [6] = assay: Antifungal activity against fluconazole-resistant Candida albicans ATCC 200955 after overnight incubation by CLSI broth microdilution method; type: functional
Candida albicans [7] = assay: Antifungal activity against fluconazole-resistant Candida albicans NUH-K6004 after overnight incubation by CLSI broth microdilution method; type: functional
Candida albicans [8] = assay: Antifungal activity against fluconazole-resistant Candida albicans TTSH-CALB01 after overnight incubation by CLSI broth microdilution method; type: functional
Candida albicans [9] = assay: Antifungal activity against fluconazole-resistant Candida albicans TTSH-CALB02 after overnight incubation by CLSI broth microdilution method; type: functional
[10] = Cytotoxicity against NHDF assessed as reduction in cell viability after 5 days by CellTiter-Glo assay; type: cell-based; details: human, NHDF cells
[11] = Cytotoxicity against human bone marrow cells assessed as inhibition of colony formation; type: cell-based, Bone marrow cell
Candida albicans [12] = assay: Fungistatic activity against fluconazole-resistant Candida albicans ATCC 64550 at 4 times MIC incubated for overnight flowed by replating and measured after 24 hrs; type: functional, organism-based

For H-KLKLKLKL-NH2, the MIC (Candida albicans [1]) was 3.13 µM and the Retention_time [2] was 14.4 min.

Molecule `CC[C@H](C)[C@H](N)C(=O)N[C@@H](CCCN)C(=O)N[C@H](C(=O)N[C@@H](CCCN)C(=O)N[C@H](C(=O)N[C@@H](CCCN)C(=O)N[C@H](C(=O)N[C@@H](CCCN)C(=O)N[C@H](C(N)=O)[C@@H](C)CC)[C@@H](C)CC)[C@@H](C)CC)[C@@H](C)CC` (HELM PEPTIDE1{I.[Orn].I.[Orn].I.[Orn].I.[Orn].I.[am]}$$$$V2.0) has an MIC (Candida albicans [1]) of 6.25 µM (≈ 6.5 µg/mL) and a Retention_time [2] of 13.2 min.

With H-IKIKIKIA-NH2 the MIC (Candida albicans [1]) was 12.5 µM and the Retention_time [2] was 13.9 min.

For H-FKFKFKFK-NH2, the MIC (Candida albicans [1]) was 6.25 µM and the Retention_time [2] was 15.2 min.

Work on H-IKIKAKIK-NH2 yielded an MIC (Candida albicans [1]) of 6.25 µM and a Retention_time [2] of 11.8 min.

With `CC(O)CO` (configuration not stated) [PROPYLENE GLYCOL] the Activity (NHDF) was “Non-Toxic”.

In the case of H-IIIIKKKK-NH2, the MIC (Candida albicans [1]) was 12.5 µM and the Retention_time [2] was 12 min.

`CC(C)C[C@H](NC(=O)[C@H](CCCCN)NC(=O)[C@H](CC(C)C)NC(=O)[C@H](CCCCN)NC(=O)[C@H](CC(C)C)NC(=O)[C@H](CCCCN)NC(=O)[C@@H](N)CC(C)C)C(=O)N[C@@H](CCCCN)C(N)=O` gave an MIC (Candida albicans [1]) of 3.13 µM (≈ 3.07 µg/mL) and a Retention_time [2] of 13.8 min.

Work on `CC[C@H](C)[C@H](N)C(=O)N[C@@H](CCN)C(=O)N[C@H](C(=O)N[C@@H](CCN)C(=O)N[C@H](C(=O)N[C@@H](CCN)C(=O)N[C@H](C(=O)N[C@@H](CCN)C(=O)N[C@H](C(N)=O)[C@@H](C)CC)[C@@H](C)CC)[C@@H](C)CC)[C@@H](C)CC` (HELM PEPTIDE1{I.[Dab].I.[Dab].I.[Dab].I.[Dab].I.[am]}$$$$V2.0) yielded an MIC (Candida albicans [1]) of 6.25 µM (≈ 6.15 µg/mL) and a Retention_time [2] of 13.5 min.

Ac-IKIKIKIK-NH2 showed an MIC (Candida albicans [1]) of 12.5 µM and a Retention_time [2] of 14.3 min.

Molecule H-KKIIKKII-NH2 has an MIC (Candida albicans [1]) greater than 100 µM and a Retention_time [2] of 12.6 min.

H-IIKKIIKK-NH2 showed an MIC (Candida albicans [1]) greater than 100 µM and a Retention_time [2] of 11.6 min.

Molecule H-KLKLK-NH2 has an MIC (Candida albicans [1]) greater than 100 µM and a Retention_time [2] of 11.2 min.

Work on H-IKIAIKIK-NH2 yielded an MIC (Candida albicans [1]) of 12.5 µM and a Retention_time [2] of 13.8 min.

For `CC[C@H](C)[C@H](N)C(=O)N[C@@H](CN)C(=O)N[C@H](C(=O)N[C@@H](CN)C(=O)N[C@H](C(=O)N[C@@H](CN)C(=O)N[C@H](C(=O)N[C@@H](CN)C(=O)N[C@H](C(N)=O)[C@@H](C)CC)[C@@H](C)CC)[C@@H](C)CC)[C@@H](C)CC` (H-I[Dap]I[Dap]I[Dap]I[Dap]I-NH2), the MIC (Candida albicans [1]) was 25 µM (≈ 23.2 µg/mL) and the Retention_time [2] was 13.7 min.

Work on `CC(C)C[C@H](N)C(=O)N[C@@H](CCCCN)C(N)=O` (H-Leu-Lys-NH2) yielded an MIC (Candida albicans [1]) greater than 100 µM and a Retention_time [2] of 2.1 min.

Molecule H-KLKLKLK-NH2 has an MIC (Candida albicans [1]) of 25 µM and a Retention_time [2] of 12.7 min.

Work on `Clc1ccc(COC(Cn2ccnc2)c2ccc(Cl)cc2Cl)c(Cl)c1` (configuration not stated) [MICONAZOLE] yielded an MIC (Candida albicans [1]) of 12.5 µM (≈ 5.2 µg/mL), an MIC (Candida albicans [3]) of 6.25 µM (≈ 2.6 µg/mL) and an MIC (Candida albicans [4]) of 12.5 µM (≈ 5.2 µg/mL). The MIC (Candida albicans [5]) was 6.25 µM (≈ 2.6 µg/mL), the MIC (Candida albicans [6]) was 12.5 µM (≈ 5.2 µg/mL) and the MIC (Candida albicans [7]) was 12.5 µM (≈ 5.2 µg/mL). For the same molecule, the MIC (Candida albicans [8]) was 12.5 µM (≈ 5.2 µg/mL), the MIC (Candida albicans [9]) was 12.5 µM (≈ 5.2 µg/mL) and the GI50 at 120 h [10] was 10.3 µM. For the same molecule, the GI50 [11] was 12.8 µM and the Activity (Candida albicans [12]) was “Active”.

For H-IKIKIKIK-OH, the MIC (Candida albicans [1]) was 12.5 µM and the Retention_time [2] was 13.5 min.

For `CC(C)C[C@H](NC(=O)[C@H](CCCCN)NC(=O)[C@@H](N)CC(C)C)C(N)=O` (H-Leu-Lys-Leu-NH2), the MIC (Candida albicans [1]) was greater than 100 µM and the Retention_time [2] was 12.1 min.

In the case of H-IKIKIKAK-NH2, the MIC (Candida albicans [1]) was 6.25 µM and the Retention_time [2] was 12 min.

H-IKIKIAIK-NH2 showed an MIC (Candida albicans [1]) of 12.5 µM and a Retention_time [2] of 13.8 min.

Work on H-LKLKL-NH2 yielded an MIC (Candida albicans [1]) greater than 100 µM and a Retention_time [2] of 13.7 min.

In the case of H-IEIEIEIE-NH2, the MIC (Candida albicans [1]) was greater than 100 µM and the Retention_time [2] was 16.1 min.

`NCCCC[C@H](NC(=O)[C@H](CC1CC1)NC(=O)[C@H](CCCCN)NC(=O)[C@H](CC1CC1)NC(=O)[C@H](CCCCN)NC(=O)[C@H](CC1CC1)NC(=O)[C@H](CCCCN)NC(=O)[C@@H](N)CC1CC1)C(N)=O` (H-[Ala(cPr)]K[Ala(cPr)]K[Ala(cPr)]K[Ala(cPr)]K-NH2) gave an MIC (Candida albicans [1]) of 6.25 µM (≈ 6.09 µg/mL) and a Retention_time [2] of 12.8 min.

In the case of H-VKVKVKVK-NH2, the MIC (Candida albicans [1]) was 6.25 µM and the Retention_time [2] was 11.1 min.

For H-IKAKIKIK-NH2, the MIC (Candida albicans [1]) was 6.25 µM and the Retention_time [2] was 11.8 min.
